For one data set, the system named is Adult male C57BL/6J mice. Nature of the data set: Conditioned avoidance response (CAR) assay, Example 1. It is filed as in vivo. The conditions noted are these: for Effect on conditioned avoidance responding (dose-response, FIG. 1): each compound alone, compiled independent studies; for Avoidance responding versus vehicle-vehicle control, drug alone: subthreshold doses alone (data not shown); for Blockade of xanomeline's effects in CAR by muscarinic antagonist: maximally active dose of xanomeline, FIG. 11, N=14. The text has this:
In the CAR assay, mice were first trained to avoid a foot shock (i.e., crossing from one side of a shuttle box to another within 10 secs) to a performance criterion of ≥85% avoidance responses. A repeated-measures, counterbalanced design was used. Two experiments evaluated the effects of blocking central (with scopolamine) vs. peripheral (with N-methylscopolamine) muscarinic receptors. […] “Subthreshold” of “sub-efficacious” refers to doses that are lower than the therapeutically effective amount for monotherapy but which could be effective in synergy with the antipsychotics tested.
Referring to FIG. 1, the compiled data over independent studies with each compound were analyzed separately via one-way repeated-measures ANOVA. A Dunnett post-hoc test was performed and that dose group significance was only assessed against Vehicle.
Post hoc analysis vs. xanomeline alone (*) and vs. comparator dose alone (#).

The next data set deals with male C57BL/6J mice. Nature of the data set: Conditioned avoidance response (CAR) assay, Example 2 (enhanced aripiprazole formulation, two sequential injections). As to conditions: for Average avoidance response percentages, A alone: Example 2.
Data set [1] is described as follows: Brain and plasma drug exposure collected after the LMA study. The format is in vivo, mice. The source says: After the experiment, plasma and brain tissue were collected to determine drug exposure.
Data set [2] has as its system MK-801-induced locomotor activity in C57BL/6J mice. Nature of the data set: MK-801-induced locomotor activity (LMA) assay. The format is in vivo. The source says: In the CAR assay, mice were first trained to avoid a foot shock (i.e., crossing from one side of a shuttle box to another within 10 secs) to a performance criterion of ≥85% avoidance responses. A repeated-measures, counterbalanced design was used. Two experiments evaluated the effects of blocking central (with scopolamine) vs. peripheral (with N-methylscopolamine) muscarinic receptors. Additional experiments evaluated augmentation and synergy by combining dosing subthreshold doses of xanomeline plus risperidone or aripiprazole. “Subthreshold” of “sub-efficacious” refers to doses that are lower than the therapeutically effective amount for monotherapy but which could be effective in synergy with the antipsychotics tested.
In the LMA assay, varying doses of xanomeline and risperidone were co-formulated. […] After the experiment, plasma and brain tissue were collected to determine drug exposure.
Data are mean (±SEM) total distance traveled.

SMILES strings stand for the structures.

Turning to `O=C1CCc2ccc(OCCCCN3CCN(c4cccc(Cl)c4Cl)CC3)cc2N1` [Aripiprazole, aripiprazole], the “Average avoidance response percentages, A alone” value with Adult male C57BL/6J mice (aripiprazole 1 mg/kg alone) was 2%; in the data set with Adult male C57BL/6J mice (aripiprazole 3 mg/kg alone), 6%; in the data set with male C57BL/6J mice (aripiprazole 0.1 mg/kg IP alone) it was 14%; in the data set on male C57BL/6J mice (aripiprazole 0.3 mg/kg IP alone), 31%. Besides, the “Effect on conditioned avoidance responding (dose-response, FIG. 1)” value (“Effect … (dose-response, FIG. 1)” below) in the data set on Adult male C57BL/6J mice is given as “dose-dependently reduced conditioned avoidance responding”. In addition, the “Avoidance responding versus vehicle-vehicle control, drug alone” value with Adult male C57BL/6J mice is recorded as “did not significantly differ from vehicle-vehicle control conditions”. The “Effects on CAR activity endpoints” value in the data set with male C57BL/6J mice (aripiprazole 3 mg/kg IP, FIG. 18, N=15) is given as “robust effects on CAR activity endpoints”. Besides, the Escape failures result with male C57BL/6J mice (aripiprazole 0.1, 0.3 mg/kg with or without xanomeline 1 mg/kg) is “No dose of aripiprazole or combination dose with xanomeline resulted in escape failures”; with male C57BL/6J mice (aripiprazole dose response study, 0.3-10 mg/kg), “not evident at any doses”. Besides, the “Disruption of CAR performance (dose response)” value with male C57BL/6J mice (aripiprazole 0.3, 1, 3 and 10 mg/kg, data not shown) is reported as “effective at disrupting CAR performance in a dose-related manner”. Also, the “ED50 in CAR” value in the data set on male C57BL/6J mice (aripiprazole dose response study, Example 2 formulation) was ~0.3 mg/kg.
For `CCCCCCOc1nsnc1C1=CCCN(C)C1` [Xanomeline, xanomeline], the “Effect … (dose-response, FIG. 1)” value with Adult male C57BL/6J mice is “dose-dependently reduced conditioned avoidance responding”. The “Average avoidance response percentages, X alone” value is reported as 5% in the data set with Adult male C57BL/6J mice (xanomeline 1 mg/kg alone, aripiprazole combination study (co-formulation, single SC injection), N=16); 7% in the data set with Adult male C57BL/6J mice (xanomeline 1 mg/kg alone, risperidone combination study, N=17); 20% in the data set with Adult male C57BL/6J mice (xanomeline 3 mg/kg alone, aripiprazole combination study); 6% with male C57BL/6J mice (xanomeline 1 mg/kg SC alone, Example 2, N=16). Further, in the data set with male C57BL/6J mice (1 mg/kg dose alone), the “Activity in the CAR assay (percentage avoidance responses and latency to respond)” value was “inactive in the CAR assay”. In data set [1] (co-dosed with risperidone), the “Xanomeline plasma exposure across the increasing doses of risperidone” value is listed as “no significant increase”. The “Brain level of the named substance” value in data set [1] (treatment: MK-801 0.3 + risperidone 0.001 + xanomeline 1 mg/kg) was 143.4 ± 4.8 ng/g; in data set [1] (treatment: MK-801 0.3 + risperidone 0.003 + xanomeline 1 mg/kg), 154.6 ± 9.3 ng/g; in data set [1] (treatment: MK-801 0.3 + risperidone 0.01 + xanomeline 1 mg/kg, * p<0.05 vs xanomeline alone), 184.9 ± 15.5* ng/g; in data set [1] (treatment: MK-801 0.3 + xanomeline 1 mg/kg) it was 126.0 ± 6.6 ng/g. For the same compound, the “Activity alone against MK-801 stimulated activity” value in data set [2] (xanomeline 1 mg/kg alone) was “Inactive”.
On to `Cc1nc2n(c(=O)c1CCN1CCC(c3noc4cc(F)ccc34)CC1)CCCC2` [Risperidone, risperidone], for which the “Effect … (dose-response, FIG. 1)” value with Adult male C57BL/6J mice is on record as “dose-dependently reduced conditioned avoidance responding”. The “Average avoidance response percentages, R alone” value turned out to be 5% with Adult male C57BL/6J mice (risperidone 0.03 mg/kg alone), 26% in the data set on Adult male C57BL/6J mice (risperidone 0.1 mg/kg alone) and 85% in the data set on Adult male C57BL/6J mice (risperidone 0.3 mg/kg alone). Also, the “Avoidance responding versus vehicle-vehicle control, drug alone” value with Adult male C57BL/6J mice is listed as “did not significantly differ from vehicle-vehicle control conditions”. In addition, the “Activity alone against MK-801 stimulated activity” value in data set [2] (risperidone 0.001 mg/kg alone) is listed as “Inactive”.
As for `CN1[C@@H]2C[C@@H](OC(=O)[C@H](CO)c3ccccc3)C[C@H]1[C@@H]1O[C@@H]12` [scopolamine], the “Blockade of the activity of xanomeline in CAR” value with Adult male C57BL/6J mice (SCOP 0.03 mg/kg) was “partially blocks”; in the data set with Adult male C57BL/6J mice (SCOP 0.1 mg/kg) it was “fully”. Further, the “Activity alone in CAR” value in the data set with Adult male C57BL/6J mice (SCOP 0.3 mg/kg) is given as “has no activity alone in CAR”. For the same compound, the “Blockade of xanomeline's effects in CAR by muscarinic antagonist” value with Adult male C57BL/6J mice is “dose-dependently blocked xanomeline's effects”. In addition, the “Reversal of xanomeline activity in CAR” value in the data set on Adult male C57BL/6J mice (scopolamine 0.3 mg/kg) is listed as “fully reversed xanomeline activity”. For the same compound, the “Effect on risperidone's antipsychotic-like effect in CAR” value in the data set on Adult male C57BL/6J mice (scopolamine 0.3 mg/kg, FIG. 12, N=16) is given as “failed to attenuate”. Also, the “Effect of scopolamine on the activity of aripiprazole in CAR” value with male C57BL/6J mice (0.3 mg/kg scopolamine SC 15 minutes before 3.0 mg/kg aripiprazole) was “slight, but statistically significant effect in reducing the activity of aripiprazole”.
As to `C[N+]1(C)[C@@H]2C[C@@H](OC(=O)[C@H](CO)c3ccccc3)C[C@H]1[C@@H]1O[C@@H]12` [N-methyl-scopolamine, N-methylscopolamine], the “Blockade of the activity of xanomeline in CAR” value with Adult male C57BL/6J mice (100-fold higher dose of N-methyl-scopolamine) was “failed to block the activity of xanomeline”. Moreover, the “Blockade of xanomeline's effects in CAR by muscarinic antagonist” value in the data set on Adult male C57BL/6J mice is reported as “had no effect”.

These data come from patent publication US20220370454A1, “METHODS FOR TREATING CENTRAL NERVOUS SYSTEM DISORDERS WITH MUSCARINIC RECEPTOR ACTIVATION AND ANTIPSYCHOTICS” (Karuna Therapeutics, Inc., priority 2021, published 2022).
